Results reported in paper PMC4076284, “A Characteristic Back Support Structure in the Bisphenol A-Binding Pocket in the Human Nuclear Receptor ERRγ” (PLoS ONE, 2014).

Key:
[1] = target: T1, Lys430Ala-ERRγ mutant receptor (GST-fused LBD) (Homo sapiens, UniProt P62508, K430A); settings: heterogeneous binding assay using [^3H]BPA
Protocol: (§1) Wild-type and mutant ERRγ-LBD proteins were expressed as glutathione S-transferase (GST)-fused preparations in E. coli BL21 as described previously [1], [24], [25]. […] After loading the protein solution, the column was incubated for 1 h at 4°C, and then washed three times with PBS containing 0.5% (v/v) Triton X-100 and once with sonication buffer (50 mM Tris-HCl (pH 8.0), 50 mM NaCl, 1 mM EDTA, and 1 mM dithiothreitol). […] The protein concentrations were determined by the Bradford method [26].
(§2) Competitive binding assays were performed in the presence of GST-fused wild-type ERRγ-LBD or its mutants at the most appropriate concentration of each receptor. […] Radioactivity was determined on a liquid scintillation counter TopCount NXT (PerkinElmer Life Sciences Japan Co., Ltd., Tokyo, Japan). To estimate the binding affinity, the IC50 values (the concentrations for the half-maximal inhibition) were calculated from the dose-response curves evaluated by the nonlinear analysis program ALLFIT [30]. Each assay was performed at least three times.

[2] = target: T2, His434Phe-ERRγ mutant receptor (GST-fused LBD) (Homo sapiens, UniProt P62508, H434F); settings: heterogeneous competitive binding
Protocol: as §1, §2

[3] = target: T3, Leu345Ile-ERRγ mutant receptor (GST-fused LBD) (Homo sapiens, UniProt P62508, L345I); test: Competitive binding assay using [^3H]BPA
T3 construct: wild-type ERRγ-LBD encoding 222-458 residues; made in house; host or cells: E. coli BL21
Protocol: as §1, §2

[4] = target: T4, Asn346Gly-ERRγ mutant receptor (GST-fused LBD) (Homo sapiens, UniProt P62508, N346G); test: Competitive binding assay using [^3H]BPA
T4 construct: wild-type ERRγ-LBD encoding 222-458 residues; made in house; host or cells: E. coli BL21
Protocol: as §1, §2

[5] = target: T5, Asn346Tyr-ERRγ mutant receptor (GST-fused LBD) (Homo sapiens, UniProt P62508, N346Y); test: Competitive binding assay using [^3H]BPA
T5 construct: wild-type ERRγ-LBD encoding 222-458 residues; made in house; host or cells: E. coli BL21
Protocol: as §1, §2

[6] = target: T6, Val313Ala-ERRγ mutant receptor (GST-fused LBD) (Homo sapiens, UniProt P62508, V313A); test: Competitive binding assay using [^3H]BPA; settings: competitive binding (Table 3, BPA value from ref 24)
T6 construct: wild-type ERRγ-LBD encoding 222-458 residues was generated by PCR; made in house; host or cells: E. coli BL21
Protocol: as §1, §2

[7] = target: T7, Tyr330Ala-ERRγ mutant receptor (GST-fused LBD) (Homo sapiens, UniProt P62508, Y330A); test: Competitive binding assay using [^3H]BPA
T7 construct: wild-type ERRγ-LBD encoding 222-458 residues was generated by PCR; made in house; host or cells: E. coli BL21
Protocol: as §1, §2

[8] = target: T8, Tyr330Phe-ERRγ mutant receptor (GST-fused LBD) (Homo sapiens, UniProt P62508, Y330F); test: Competitive binding assay using [^3H]BPA
T8 construct: wild-type ERRγ-LBD encoding 222-458 residues was generated by PCR; made in house; host or cells: E. coli BL21
Protocol: as §1, §2

[9] = test system: ERRγ mutant receptors; test: [^3H]BPA saturation and/or competitive binding: ranges stated over several ERRγ mutants or both assays; set-up: species or system human; settings: for Activity decrements vs wild-type: competitive binding (Table 2)
Protocol: The reaction mixture was incubated at 4°C for 2 h with the receptor proteins—GST-fused wild-type ERRγ-LBD or its mutants—in 100 µl of binding buffer [10 mM HEPES (pH 7.5), 50 mM NaCl, 2 mM MgCl2, 1 mM EDTA, 2 mM CHAPS, and 2 mg/ml γ-globulin]. The assay was performed with or without the addition of unlabelled BPA (final concentration of 1.0×10^-5 M) to quantify the specific and nonspecific binding. After incubation with 100 µl of 1% dextran-coated charcoal (DCC) (Sigma-Aldrich) in PBS (pH 7.4) for 10 min at 4°C, the DCC-absorbed free radio-ligand was removed by the direct vacuum filtration method using a 96-well filtration plate (MultiScreen^HTS HV, 0.45 µm pore size; Millipore, Billerica, MA, USA) for the bound/free separation. Radioactivity was determined on a liquid scintillation counter (LS6500; Beckman Coulter, Fullerton, CA, USA).
The saturation binding assay was performed at least three times.
Each assay was performed at least three times.

[10] = target: T9, Ile310Ala-ERRγ mutant receptor (GST-fused LBD) (Homo sapiens, UniProt P62508, I310A); settings: BPA value re-collected from the previous report, read-out: Receptor binding potency IC50; cited from earlier work
T9 construct: wild-type ERRγ-LBD encoding 222-458 residues was generated by PCR; made in house; host or cells: E. coli BL21

[11] = target: T6, Val313Ala-ERRγ mutant receptor (GST-fused LBD); settings: BPA value re-collected from the previous report, read-out: Receptor binding potency IC50; cited from earlier work
[12] = target: T10, Val313Leu-ERRγ mutant receptor (GST-fused LBD) (Homo sapiens, UniProt P62508, V313L); settings: BPA value re-collected from the previous report, read-out: Receptor binding potency IC50; cited from earlier work
T10 construct: wild-type ERRγ-LBD encoding 222-458 residues was generated by PCR; made in house; host or cells: E. coli BL21

[13] = target: GST-fused wild-type ERRγ-LBD (Homo sapiens, UniProt P62508); test: biochemical; settings: [^3H]BPA 5 nM, 4°C, 2 h
Protocol: as §1, §2

[14] = target: Leu342Val-ERRγ mutant receptor (GST-fused LBD) (Homo sapiens, UniProt P62508, L342V); test: biochemical
Protocol: as §1, §2

[15] = target: Leu342Ile-ERRγ mutant receptor (GST-fused LBD) (Homo sapiens, UniProt P62508, L342I); test: biochemical
Protocol: as §1, §2

[16] = target: Leu345Ala-ERRγ mutant receptor (GST-fused LBD) (Homo sapiens, UniProt P62508, L345A); test: biochemical
Protocol: as §1, §2

[17] = target: Leu345Val-ERRγ mutant receptor (GST-fused LBD) (Homo sapiens, UniProt P62508, L345V); test: biochemical
Protocol: as §1, §2

[18] = target: Asn346Ala-ERRγ mutant receptor (GST-fused LBD) (Homo sapiens, UniProt P62508, N346A); test: biochemical
Protocol: as §1, §2

[19] = target: Asn346Gln-ERRγ mutant receptor (GST-fused LBD) (Homo sapiens, UniProt P62508, N346Q); test: biochemical
Protocol: as §1, §2

[20] = target: Ile349Ala-ERRγ mutant receptor (GST-fused LBD) (Homo sapiens, UniProt P62508, I349A); test: biochemical
Protocol: as §2

[21] = target: Ile349Val-ERRγ mutant receptor (GST-fused LBD) (Homo sapiens, UniProt P62508, I349V); test: biochemical
Protocol: as §2

[22] = target: Ile349Leu-ERRγ mutant receptor (GST-fused LBD) (Homo sapiens, UniProt P62508, I349L); test: biochemical
Protocol: as §2

[23] = target: T1, Lys430Ala-ERRγ mutant receptor (GST-fused LBD); test: biochemical
Protocol: as §1, §2

[24] = target: T2, His434Phe-ERRγ mutant receptor (GST-fused LBD); test: biochemical
Protocol: as §1, §2

[25] = read-out: Receptor binding potency IC50

T5 sequence (P62508 222-458 N346Y): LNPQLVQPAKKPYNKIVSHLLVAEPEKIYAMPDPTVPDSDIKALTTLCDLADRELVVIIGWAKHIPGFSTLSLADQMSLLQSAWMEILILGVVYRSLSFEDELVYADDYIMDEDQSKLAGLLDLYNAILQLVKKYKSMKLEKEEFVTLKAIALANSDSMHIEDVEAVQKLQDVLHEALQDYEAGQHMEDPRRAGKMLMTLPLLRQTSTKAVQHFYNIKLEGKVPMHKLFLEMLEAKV
T7 sequence (P62508 222-458 Y330A): as the sequence (P62508 222-458 N346Y) above, with Y109A, Y125N counted along it
T2 sequence (P62508 222-458 H434F): as the sequence (P62508 222-458 N346Y) above, with Y125N, H213F counted along it
T4 sequence (P62508 222-458 N346G): as the sequence (P62508 222-458 N346Y) above, with Y125G counted along it
T6 sequence (P62508 222-458 V313A): as the sequence (P62508 222-458 N346Y) above, with V92A, Y125N counted along it
Sequence of GST-fused wild-type ERRγ-LBD (P62508 222-458): as the sequence (P62508 222-458 N346Y) above, with Y125N counted along it
T8 sequence (P62508 222-458 Y330F): as the sequence (P62508 222-458 N346Y) above, with Y109F, Y125N counted along it
T3 sequence (P62508 222-458 L345I limits assumed): as the sequence (P62508 222-458 N346Y) above, with L124I, Y125N counted along it
T1 sequence (P62508 222-458 K430A): as the sequence (P62508 222-458 N346Y) above, with Y125N, K209A counted along it
Sequence of Ile349Val-ERRγ mutant receptor (GST-fused LBD) (P62508 222-458 I349V limits assumed): as the sequence (P62508 222-458 N346Y) above, with Y125N, I128V counted along it
Sequence of Leu342Ile-ERRγ mutant receptor (GST-fused LBD) (P62508 222-458 L342I limits assumed): as the sequence (P62508 222-458 N346Y) above, with L121I, Y125N counted along it
T9 sequence (P62508 222-458 I310A limits assumed): as the sequence (P62508 222-458 N346Y) above, with I89A, Y125N counted along it
Sequence of Leu345Val-ERRγ mutant receptor (GST-fused LBD) (P62508 222-458 L345V limits assumed): as the sequence (P62508 222-458 N346Y) above, with L124V, Y125N counted along it
Sequence of Ile349Ala-ERRγ mutant receptor (GST-fused LBD) (P62508 222-458 I349A limits assumed): as the sequence (P62508 222-458 N346Y) above, with Y125N, I128A counted along it
T10 sequence (P62508 222-458 V313L limits assumed): as the sequence (P62508 222-458 N346Y) above, with V92L, Y125N counted along it
Sequence of Asn346Ala-ERRγ mutant receptor (GST-fused LBD) (P62508 222-458 N346A): as the sequence (P62508 222-458 N346Y) above, with Y125A counted along it
Sequence of Leu342Val-ERRγ mutant receptor (GST-fused LBD) (P62508 222-458 L342V limits assumed): as the sequence (P62508 222-458 N346Y) above, with L121V, Y125N counted along it
Sequence of Asn346Gln-ERRγ mutant receptor (GST-fused LBD) (P62508 222-458 N346Q): as the sequence (P62508 222-458 N346Y) above, with Y125Q counted along it
Sequence of Ile349Leu-ERRγ mutant receptor (GST-fused LBD) (P62508 222-458 I349L): as the sequence (P62508 222-458 N346Y) above, with Y125N, I128L counted along it
Sequence of Leu345Ala-ERRγ mutant receptor (GST-fused LBD) (P62508 222-458 L345A limits assumed): as the sequence (P62508 222-458 N346Y) above, with L124A, Y125N counted along it

Structure (SMILES): CC/C(=C(\c1ccc(O)cc1)c1ccc(OCCN(C)C)cc1)c1ccccc1 [4-OHT, 4-hydroxytamoxifen]
- Reinforced binding potency vs wild-type [1]: about 40%
- Reduction in receptor-binding potency vs wild-type [2]: more than 40 fold

Structure (SMILES): CC(C)(c1ccc(O)cc1)c1ccc(O)cc1 [BPA, bisphenol A]
- Decrease in binding vs wild-type ([3]; Leu345Ile mutant, homologous competitive binding): approximately 30 fold
- IC50 [3, 25]: 158 ± 19.8 nM
- Binding affinity relative to the wild-type ERRγ (IC50) ([4]; Asn346Gly mutant, homologous competitive binding): ca. 12%
- IC50 [4, 25]: 42.4 ± 5.44 nM
- Reduction in binding affinity vs wild-type ([5]; Asn346Tyr mutant, competitive binding): approximately 9 fold
- IC50 [5, 25]: 45.2 ± 8.91 nM
- Reduction in binding affinities vs wild-type [6]: approximately 5 fold
- Reduction in IC50 value vs wild-type ([7]; Tyr330Ala mutant, homologous competitive binding): more than 60 fold
- IC50 [7, 25]: 361 ± 39.3 nM
- Reduction in IC50 value vs wild-type ([8]; Tyr330Phe mutant, homologous competitive binding): approximately 3 fold
- IC50 [8, 25]: 16.1 ± 0.58 nM
- Reduced binding affinity vs wild-type ([9]; Asn346Ala mutant, saturation and competitive binding (Tables 1 and 2)): 2–4 times
- Reduction in the affinity vs wild-type ([9]; Asn346Gln mutant, saturation and competitive binding (Tables 1 and 2)): 3-10 fold
- Activity decrements vs wild-type ([9]; Asn346 mutant receptors (Ala, Gly, Gln, Tyr)): 4.0–11.3 times
- Reduction in affinity vs wild-type ([9]; Ile349Ala mutant, saturation and competitive binding (Tables 1 and 2)): 3-4 fold
- Activity decrements vs wild-type ([9]; Ile349Val and Ile349Leu mutants): 110-135%
- Reduction in IC50 value vs wild-type ([9]; Leu342Val and Leu342Ile mutants, homologous competitive binding (Table 2)): 5–7 fold
- Reduction in the binding affinity vs wild-type ([9]; Leu342Val and Leu342Ile mutants, saturation binding (Table 1)): 3–4 fold
- IC50 [10]: 21.9 ± 0.99 nM
- IC50 [11]: 26.8 ± 2.12 nM
- IC50 [12]: 16 ± 1.41 nM
- IC50 ([13]; Receptor binding potency IC50, wild-type ERRγ (Table 2)): 4.96 ± 0.71 nM
- IC50 ([13]; Receptor binding potency IC50, wild-type ERRγ (Table 3, back support series)): 5.64 ± 0.17 nM
- IC50 [14]: 34.7 ± 5.38 nM
- IC50 [15]: 24.5 ± 4.53 nM
- IC50 [16]: 60.6 ± 11.2 nM
- IC50 [17]: 154 ± 17.5 nM
- IC50 [18]: 20.1 ± 3.41 nM
- IC50 [19]: 56.1 ± 7.42 nM
- IC50 [20]: 20.1 ± 3.24 nM
- IC50 [21]: 11.7 ± 1.5 nM
- IC50 [22]: 10.4 ± 0.64 nM
- IC50 [23]: 9.7 ± 0.37 nM
- IC50 [24]: 13.7 ± 0.66 nM
